Measurements from US8569292B2, “Cyclic inhibitors of 11β-hydroxysteroid dehydrogenase 1” (Vitae Pharmaceuticals, Inc., priority 2008, dated 2013).

Key:
[1] = biological target: T1, CYP2C9 (Homo sapiens, UniProt P11712); test: Biological Test Example 9: CYP2C9 inhibition (Invitrogen kit, fluorogenic OOMR); type: in vitro ADME
T1 construct: purchased Invitrogen 2859; host or cells: insect cells infected with baculovirus (microsomes)

[2] = biological target: T2, 11β-HSD1 (Homo sapiens, UniProt P28845); test: biochemical; details: for inhibition at 0.1 µM: read-out: Average % inhibition at 100 nM
[3] = biological target: T2, 11β-HSD1; test: Biological Test Example 4: microsomal 11β-HSD1 in the presence of 50% human plasma; details: for Shift: IC50 in Test Example 4 divided by IC50 in Test Example 1
[4] = Biological Test Example 1 IC50 (nM)
[5] = IC50 Range, Biological Test Example 1

T2 sequence (P28845 whole entry): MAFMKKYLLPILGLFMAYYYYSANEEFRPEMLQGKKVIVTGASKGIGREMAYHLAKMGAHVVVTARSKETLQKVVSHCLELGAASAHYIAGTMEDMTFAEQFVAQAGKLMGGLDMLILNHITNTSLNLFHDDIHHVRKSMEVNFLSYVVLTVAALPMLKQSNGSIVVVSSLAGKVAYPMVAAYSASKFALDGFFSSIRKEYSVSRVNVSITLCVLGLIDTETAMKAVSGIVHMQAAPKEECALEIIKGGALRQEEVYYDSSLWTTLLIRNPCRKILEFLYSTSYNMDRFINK
T1 sequence (P11712 whole entry): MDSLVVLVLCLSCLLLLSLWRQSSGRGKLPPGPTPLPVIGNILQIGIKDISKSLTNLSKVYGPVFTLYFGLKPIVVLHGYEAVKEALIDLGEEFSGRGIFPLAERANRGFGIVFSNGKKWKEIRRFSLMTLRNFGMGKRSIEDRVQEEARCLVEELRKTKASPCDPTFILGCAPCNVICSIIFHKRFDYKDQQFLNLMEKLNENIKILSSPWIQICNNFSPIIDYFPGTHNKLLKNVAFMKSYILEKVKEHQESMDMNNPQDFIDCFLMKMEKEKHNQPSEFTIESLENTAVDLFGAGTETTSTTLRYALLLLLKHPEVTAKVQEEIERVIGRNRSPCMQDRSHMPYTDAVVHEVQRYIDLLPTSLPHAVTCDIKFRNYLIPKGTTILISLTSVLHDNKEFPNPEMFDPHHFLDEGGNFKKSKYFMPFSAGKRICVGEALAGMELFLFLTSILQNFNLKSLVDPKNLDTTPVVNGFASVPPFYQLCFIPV

For `C[C@@H](c1ccc(-c2ccc(C(F)(F)F)nc2)cc1)N1CC[C@](CCCO)(c2ccc(F)cc2)OC1=O` [EXAMPLE 44, (R)-6-(4-fluorophenyl)-6-(3-hydroxypropyl)-3-((S)-1-(4-(6-(trifluoromethyl)pyridin-3-yl)phenyl)ethyl)-1,3-oxazinan-2-one], the IC50 [1] was 1400 nM, the IC50 [2, 4] was 0.7 nM and the IC50 [2, 5] was < 100 nM. The inhibition at 0.1 µM [2] was 100% and the IC50 [3] was 4.2 nM.

For `C[C@@H](c1ccc(-c2cc[nH]n2)cc1)N1CC[C@](CCCO)(c2ccccc2)OC1=O` [EXAMPLE 45, (R)-3-((S)-1-(4-(1H-pyrazol-3-yl)phenyl)ethyl)-6-(3-hydroxypropyl)-6-phenyl-1,3-oxazinan-2-one], the IC50 [1] was 9000 nM, the IC50 [2, 4] was 3 nM and the IC50 [2, 5] was < 100 nM. It also gave an inhibition at 0.1 µM [2] of 96.7% and an IC50 [3] of 13.5 nM.

For `C=CC[C@]1(c2ccc(F)cc2)CCN([C@@H](C)c2ccc(-c3cncc(F)c3)cc2)C(=O)O1` [EXAMPLE 51, (R)-6-allyl-6-(4-fluorophenyl)-3-((S)-1-(4-(5-fluoropyridin-3-yl)phenyl)ethyl)-1,3-oxazinan-2-one], the IC50 [1] was 700 nM, the IC50 [2, 4] was 1.5 nM and the IC50 [2, 5] was < 100 nM. For the same molecule, the inhibition at 0.1 µM [2] was 96.1%, the IC50 [3] was 60.7 nM and the Shift [3] was 40.6.

For `COc1cncc(-c2ccc([C@H](C)N3CC[C@](CCCO)(c4ccc(F)cc4)OC3=O)cc2)c1` [EXAMPLE 53, (R)-6-(4-fluorophenyl)-6-(3-hydroxypropyl)-3-((S)-1-(4-(5-methoxypyridin-3-yl)phenyl)ethyl)-1,3-oxazinan-2-one], the IC50 [1] was 6600 nM, the IC50 [2, 4] was 1.3 nM and the IC50 [2, 5] was < 100 nM. The inhibition at 0.1 µM [2] was 98.7%, the IC50 [3] was 18.5 nM and the Shift [3] was 14.6.

`C=CC[C@]1(c2ccc(F)cc2)CCN([C@@H](C)c2ccc(-c3cncc(Cl)c3)cc2)C(=O)O1` [EXAMPLE 54, (R)-6-allyl-3-((S)-1-(4-(5-chloropyridin-3-yl)phenyl)ethyl)-6-(4-fluorophenyl)-1,3-oxazinan-2-one] was tested, and the IC50 [1] was 400 nM, the IC50 [2, 4] was 1 nM and the IC50 [2, 5] was < 100 nM. It also gave an inhibition at 0.1 µM [2] of 97.1%, an IC50 [3] of 39.4 nM and a Shift [3] of 38.4.

With `C[C@@H](c1ccc(-c2ccccn2)cc1)N1CC[C@](CC(C)(C)O)(c2ccc(F)cc2)OC1=O` [EXAMPLE 58, (S)-6-(4-fluorophenyl)-6-(2-hydroxy-2-methylpropyl)-3-((S)-1-(4-(pyridin-2-yl)phenyl)ethyl)-1,3-oxazinan-2-one] the IC50 [1] was 16900 nM, the IC50 [2, 4] was 0.8 nM and the IC50 [2, 5] was < 100 nM. For the same molecule, the inhibition at 0.1 µM [2] was 97.4% and the IC50 [3] was 7.2 nM.

In the case of `C[C@@H](c1ccc(-c2ccccn2)cc1)N1CC[C@](CCCO)(c2ccc(F)cc2)OC1=O` [EXAMPLE 59, (R)-6-(4-fluorophenyl)-6-(3-hydroxypropyl)-3-((S)-1-(4-(pyridin-2-yl)phenyl)ethyl)-1,3-oxazinan-2-one], the IC50 [1] is reported as 10900 nM, the IC50 [2, 4] is reported as 0.5 nM and the IC50 [2, 5] is reported as < 100 nM. It also gave an inhibition at 0.1 µM [2] of 100%, an IC50 [3] of 5.1 nM and a Shift [3] of 9.9.

For `Cc1cccc(-c2ccc([C@H](C)N3CC[C@](CCCO)(c4ccc(F)cc4)OC3=O)cc2)n1` [EXAMPLE 62, (R)-6-(4-fluorophenyl)-6-(3-hydroxypropyl)-3-((S)-1-(4-(6-methylpyridin-2-yl)phenyl)ethyl)-1,3-oxazinan-2-one], the IC50 [1] was 10900 nM, the IC50 [2, 4] was 0.5 nM and the IC50 [2, 5] was < 100 nM. It also gave an inhibition at 0.1 µM [2] of 97.9%, an IC50 [3] of 22.6 nM and a Shift [3] of 44.2.

`COc1ccc(-c2ccc([C@H](C)N3CC[C@](CC(C)(C)O)(c4ccc(F)cc4)OC3=O)cc2)cn1` [EXAMPLE 64, (S)-6-(4-fluorophenyl)-6-(2-hydroxy-2-methylpropyl)-3-((S)-1-(4-(6-methoxypyridin-3-yl)phenyl)ethyl)-1,3-oxazinan-2-one] was tested, and the IC50 [1] was 4700 nM, the IC50 [2, 4] was 0.8 nM and the IC50 [2, 5] was < 100 nM. The inhibition at 0.1 µM [2] was 99.6%, the IC50 [3] was 6.2 nM and the Shift [3] was 8.2.

For `COc1ccc(-c2ccc([C@H](C)N3CC[C@](CCCO)(c4ccc(F)cc4)OC3=O)cc2)cn1` [EXAMPLE 65, (R)-6-(4-fluorophenyl)-6-(3-hydroxypropyl)-3-((S)-1-(4-(6-methoxypyridin-3-yl)phenyl)ethyl)-1,3-oxazinan-2-one], the IC50 [1] was 4000 nM, the IC50 [2, 4] was 0.4 nM and the IC50 [2, 5] was < 100 nM. The inhibition at 0.1 µM [2] was 99%, the IC50 [3] was 3.8 nM and the Shift [3] was 8.8.

For `COc1ccc(-c2ccc([C@H](C)N3CC[C@](CCCNS(C)(=O)=O)(c4ccc(F)cc4)OC3=O)cc2)cn1` [EXAMPLE 67, N-(3-((R)-6-(4-fluorophenyl)-3-((S)-1-(4-(6-methoxypyridin-3-yl)phenyl)ethyl)-2-oxo-1,3-oxazinan-6-yl)propyl)methanesulfonamide], the IC50 [1] was 3800 nM, the IC50 [2, 4] was 0.7 nM and the IC50 [2, 5] was < 100 nM. It also gave an inhibition at 0.1 µM [2] of 101%, an IC50 [3] of 6.7 nM and a Shift [3] of 9.9.

For `C[C@@H](c1ccc(-c2cncc(Cl)c2)cc1)N1CC[C@](CCCO)(c2ccc(F)cc2)OC1=O` [EXAMPLE 69, (R)-3-((S)-1-(4-(5-chloropyridin-3-yl)phenyl)ethyl)-6-(4-fluoroPhenyl)-6-(3-hydroxypropyl)-1,3-oxazinan-2-one], the IC50 [1] was 2300 nM, the IC50 [2, 4] was 0.6 nM and the IC50 [2, 5] was < 100 nM. For the same molecule, the inhibition at 0.1 µM [2] was 98.3%, the IC50 [3] was 6.3 nM and the Shift [3] was 9.8.

For `Cc1nc(C)c(-c2ccc([C@H](C)N3CC[C@](CCCO)(c4ccc(F)cc4)OC3=O)cc2)s1` [EXAMPLE 83, (R)-3-((S)-1-(4-(2,4-dimethylthiazol-5-yl)phenyl)ethyl)-6-(4-fluorophenyl)-6-(3-hydroxypropyl)-1,3-oxazinan-2-one], the IC50 [1] was 3900 nM, the IC50 [2, 4] was 1 nM and the IC50 [2, 5] was < 100 nM. The inhibition at 0.1 µM [2] was 94.7%, the IC50 [3] was 8.8 nM and the Shift [3] was 8.9.

`C[C@@H](c1ccc(-c2ccccn2)cc1)N1CC[C@](CCCNS(C)(=O)=O)(c2ccccc2)OC1=O` [EXAMPLE 89, N-(3-((R)-2-oxo-6-phenyl-3-((S)-1-(4-(pyridin-2-yl)phenyl)ethyl)-1,3-oxazinan-6-yl)propyl)methanesulfonamide] was tested, and the IC50 [1] was 13300 nM, the IC50 [2, 4] was 0.6 nM and the IC50 [2, 5] was < 100 nM. It also gave an inhibition at 0.1 µM [2] of 98.9%, an IC50 [3] of 6.2 nM and a Shift [3] of 10.5.

For `C[C@@H](c1ccc(-c2cccnc2)cc1)N1CC[C@](CCCNS(C)(=O)=O)(c2ccccc2)OC1=O` [EXAMPLE 91, N-(3-((R)-2-oxo-6-phenyl-3-((S)-1-(4-(pyridin-3-yl)phenyl)ethyl)-1,3-oxazinan-6-yl)propyl)methanesulfonamide], the IC50 [1] was 17300 nM, the IC50 [2, 4] was 1.4 nM and the IC50 [2, 5] was < 100 nM. The inhibition at 0.1 µM [2] was 90.2% and the IC50 [3] was 13.7 nM.

In the case of `COc1ccc(-c2ccc([C@H](C)N3CC[C@](CCCNS(C)(=O)=O)(c4ccccc4)OC3=O)cc2)cn1` [EXAMPLE 94, N-(3-((R)-3-((S)-1-(4-(6-methoxypyridin-3-yl)phenyl)ethyl)-2-oxo-6-phenyl-1,3-oxazinan-6-yl)propyl)methanesulfonamide], the IC50 [1] is reported as 4500 nM, the IC50 [2, 4] is reported as 0.5 nM and the IC50 [2, 5] is reported as < 100 nM. It also gave an inhibition at 0.1 µM [2] of 98.7%, an IC50 [3] of 5 nM and a Shift [3] of 11.0.

For `C[C@@H](c1ccc(-c2ccn(C)n2)cc1)N1CC[C@](CCCO)(c2ccccc2)OC1=O` [EXAMPLE 100, (R)-6-(3-hydroxypropyl)-3-((S)-1-(4-(1-methyl-1H-pyrazol-3-yl)phenyl)ethyl)-6-phenyl-1,3-oxazinan-2-one], the IC50 [1] was 4500 nM, the IC50 [2, 4] was 1.2 nM and the IC50 [2, 5] was < 100 nM. The inhibition at 0.1 µM [2] was 93.1%, the IC50 [3] was 6 nM and the Shift [3] was 4.8.

`C[C@@H](c1ccc(-c2ncccn2)cc1)N1CC[C@](CCCO)(c2ccc(F)cc2)OC1=O` [EXAMPLE 113, (R)-6-(4-fluorophenyl)-6-(3-hydroxypropyl)-3-((S)-1-(4-(pyrimidin-2-yl)phenyl)ethyl)-1,3-oxazinan-2-one] was tested, and the IC50 [1] was 2900 nM, the IC50 [2, 4] was 7.4 nM and the IC50 [2, 5] was < 100 nM. For the same molecule, the inhibition at 0.1 µM [2] was 92.4%, the IC50 [3] was 22.8 nM and the Shift [3] was 3.1.

`Cc1cc(-c2ccc([C@H](C)N3CC[C@](CC4(O)CC4)(c4ccc(F)cc4)OC3=O)cc2)ccn1` [EXAMPLE 115, (S)-6-(4-fluorophenyl)-6-((1-hydroxycyclopropyl)methyl)-3-((S)-1-(4-(2-methylpyridin-4-yl)phenyl)ethyl)-1,3-oxazinan-2-one] was tested, and the IC50 [1] was 4400 nM, the IC50 [2, 4] was 1 nM and the IC50 [2, 5] was < 100 nM. For the same molecule, the inhibition at 0.1 µM [2] was 95.1%, the IC50 [3] was 10.3 nM and the Shift [3] was 10.2.

With `Cc1cc(-c2ccc([C@H](C)N3CC[C@](CC(C)(C)C#N)(c4ccc(F)cc4)OC3=O)cc2)ccn1` [EXAMPLE 116, 3-((R)-6-(4-fluorophenyl)-3-((S)-1-(4-(2-methylpyridin-4-yl)phenyl)ethyl)-2-oxo-1,3-oxazinan-6-yl)-2,2-dimethylpropanenitrile] the IC50 [1] was 5300 nM, the IC50 [2, 4] was 0.7 nM and the IC50 [2, 5] was < 100 nM. The inhibition at 0.1 µM [2] was 99.6%, the IC50 [3] was 3.7 nM and the Shift [3] was 5.1.

For `Cc1cc(-c2ccc([C@H](C)N3CC[C@](CCCO)(c4ccccc4)OC3=O)cc2)cc(C)[n+]1[O-]` [EXAMPLE 120, 4-(4-((S)-1-((R)-6-(3-hydroxypropyl)-2-oxo-6-phenyl-1,3-oxazinan-3-yl)ethyl)phenyl)-2,6-dimethylpyridine 1-oxide], the IC50 [1] was 4700 nM, the IC50 [2, 4] was 6.7 nM and the IC50 [2, 5] was < 100 nM. For the same molecule, the inhibition at 0.1 µM [2] was 93.1%, the IC50 [3] was 24.2 nM and the Shift [3] was 3.6.

With `Cc1cc(-c2ccc([C@H](C)N3CC[C@](CC(C)(C)O)(c4ccccc4)OC3=O)cc2)cc(C)[n+]1[O-]` [EXAMPLE 121, 4-(4-((S)-1-((S)-6-(2-hydroxy-2-methylpropyl)-2-oxo-6-phenyl-1,3-oxazinan-3-yl)ethyl)phenyl)-2,6-dimethylpyridine 1-oxide] the IC50 [1] was 4800 nM, the IC50 [2, 4] was 2.3 nM and the IC50 [2, 5] was < 100 nM. The inhibition at 0.1 µM [2] was 97.3% and the IC50 [3] was 7.5 nM.
